pIC50: −log10 of the molar value. Calls of active or inactive are those of the source. The rule behind the calls is not given here.

Experimental findings from ChEMBL document CHEMBL3351604, “Rhytidenones A-F, Spirobisnaphthalenes from Rhytidhysteron sp. AS21B, an Endophytic Fungus” (J Nat Prod, 2014) are described below.

Series [1] in a line: Cytotoxicity against mouse J774A1 cells by MTT assay. It counts as cell-based. The following applies: j774.a1. (In general: Tetrazolium assays rely on reduction of a dye to a coloured formazan, in cell work by metabolically active cells.)
A further series concerns J774.A1. As to the kind of experiment: Antiinflammatory activity in mouse J774A1 cells assessed as inhibition of LPS-stimulated NO production pretreated at 10 uM for 2 hrs followed by LPS addition measured after 18 hrs post LPS challenge by spectrophotometry. It counts as functional, cell-based.
Series [2] in a line: Antiinflammatory activity in mouse J774A1 cells assessed as inhibition of LPS-stimulated NO production pretreated for 2 hrs followed by LPS addition measured after 18 hrs post LPS challenge by spectrophotometry. It counts as functional, cell-based. Particulars: J774.A1.

Consider `O=C1C=C[C@@H](O)[C@@H]2C1=CCCC21Oc2cccc3cccc(c23)O1`, for which the Activity result in series [1] is “Toxic”.

For `OC1C=CC(O)C2C1C(O)CCC21Oc2cccc3cccc(c23)O1` (stereo not given), the inhibition result with J774.A1 is “inactive”.

In the case of `O=C1C[C@@H](O)[C@@H](O)[C@@H]2C1=CCCC21Oc2cccc3cccc(c23)O1`, the pIC50 – broadly, the IC50 on a negative log10 scale, so that one unit is a factor of ten – in series [2] is 5.44.

As for `O=C1C[C@H](O)[C@@H](O)[C@@H]2C1=CCCC21Oc2cccc3cccc(c23)O1`, in series [2], the pIC50 was 6.51.

For the molecule `CO[C@@H]1CC(=O)C2=CCCC3(Oc4cccc5cccc(c45)O3)[C@@H]2[C@@H]1O`, the Activity entry in series [1] is “Toxic”.
